Results reported in US20190142971A1, “FORMULATION AND DELIVERY OF MODIFIED NUCLEOSIDE, NUCLEOTIDE, AND NUCLEIC ACID COMPOSITIONS” (ModernaTX, Inc., priority 2013, published 2019).
Read-outs that look alike come from different tables or passages of the source.

Key:
Balb-C mice [1] = experiment: Example 108: luciferase mRNA IM with electroporation, total flux (Tables 174-176); format: in vivo; details: 2.5 mg/kg IM with electroporation
Description: The mice of Group 2 were treated with electroporation (EP) using the […]™ instrument (Harvard Apparatus/BTX®, Holliston, Mass.) immediately after administration of luciferase.
[…] Twenty minutes prior to imaging, the mice were injected intraperitoneally with a D-luciferin solution at 150 mg/kg. Animals were then anesthetized and images were acquired with an IVIS Lumina II imaging system (Perkin Elmer). Bioluminescence was measured as total flux (photons/second) of the entire mouse.

Balb-C mice [2] = experiment: Example 85: lipoplexed luciferase mRNA IV, IM, SC, flux and organ flux (Tables 131, 132); format: in vivo; details: 0.10 mg/kg; for Flux (average total flux, entire mouse): Balb-C mice; for Organ Flux, Inj. Site: imaged at 6 hours; for Organ Flux, Kidney / Organ Flux, Liver / Organ Flux, Lung / Organ Flux, Spleen: organs imaged at 6 hours
Description: The formulation was administered intravenously (I.V.), intramuscularly (I.M.) or subcutaneously (S.C.) to Balb-C mice at a dose of 0.10 mg/kg.
Twenty minutes prior to imaging, mice were injected intraperitoneally with a D-luciferin solution at 150 mg/kg. Animals were then anesthetized and images were acquired with an IVIS Lumina II imaging system (Perkin Elmer). Bioluminescence was measured as total flux (photons/second) of the entire mouse. The mice were imaged at 8 hours, 24 hours and 48 hours after dosing and the average total flux (photons/second) was measured for each route of administration and chemical modification. The background signal was about 3.91E+05 p/s. Organs were imaged at 6 hours and the average total flux (photons/second) was measured for the liver, spleen, lung and kidney. A control for each organ was also analyzed.

Balb-C mice [3] = experiment: Example 76: modified luciferase mRNA in PBS IM, SC in mice, total flux (Tables 115, 116); format: in vivo; details: 2.5 mg/kg, PBS (pH 7.4)
Description: The mice were imaged at 2 hours, 8 hours, 24 hours, 48 hours, 72 hours, 96 hours, 120 hours and 144 hours for intramuscular delivery and 2 hours, 8 hours, 24 hours, 48 hours, 72 hours, 96 hours and 120 hours for subcutaneous delivery. Twenty minutes prior to imaging, mice were injected intraperitoneally with a D-luciferin solution at 150 mg/kg. Animals were then anesthetized and images were acquired with an IVIS Lumina II imaging system (Perkin Elmer). Bioluminescence was measured as total flux (photons/second) of the entire mouse. The average total flux (photons/second) for intramuscular administration is shown in Table 115 and the average total flux (photons/second) for subcutaneous administration is shown in Table 116. The background signal was 3.79E+05 (p/s). The peak expression for intramuscular administration was seen between 24 and 48 hours for all chemistry and expression was still detected at 144 hours.

Balb-C mice [4] = experiment: Example 112: luciferase mRNA electroporation dose response, total flux (Tables 179, 180); details: mouse, in vivo
Description: The mice undergoing electroporation were subjected to electroporation (EP) using the […]™ instrument (Harvard Apparatus/BTX®, Holliston, Mass.), as outlined in Table 179, immediately after the administration of luciferase or the control.
All of the mice are imaged at 3 hours, 24 hours, 48 hours, 168 hours, 336 hours and 504 hours post-administration of luciferase modified mRNA. Twenty minutes prior to imaging, the mice are injected intraperitoneally with a D-luciferin solution at 150 mg/kg. Animals are then anesthetized and images were acquired with an IVIS Lumina II imaging system (Perkin Elmer). Bioluminescence is measured as total flux (photons/second) of the entire mouse.

[5] = tested on: peripheral blood mononuclear cells (PBMC); format: cell-based, human
Description: 500 ng of G-CSF mRNA modified with 5-methylcytosine (5mC) and pseudouridine (pseudoU) or unmodified G-CSF mRNA was transfected with 0.4 uL of Lipofectamine 2000 into peripheral blood mononuclear cells (PBMC) from three normal blood donors (D1, D2, and D3). […] The supernatant was harvested 6 hours and 18 hours after transfection and run by ELISA to determine the protein expression. The expression of G-CSF, IFN-alpha, and TNF-alpha for Donor 1 is shown in Table 88, Donor 2 is shown in Table 89 and Donor 3 is shown in Table 90.

rats = experiment: Example 67: intravitreal mCherry/luciferase mRNA in rats, F-microscopy (Table 100); format: in vivo; details: saline, 18 hours
From the text: The sample was compared against a control of saline only delivered intravitreally.
The formulation will be administered to the left or right eye of each animal on day 1 while the animal is anesthetized. On the day prior to administration gentamicin ophthalmic ointment or solution was applied to both eyes twice. The gentamicin ophthalmic ointment or solution was also applied immediately following the injection and on the day following the injection. Prior to dosing, mydriatic drops (1% tropicamide and/or 2.5% phenylephrine) are applied to each eye.
18 hours post dosing the eyes receiving the dose of mCherry and delivery buffer are enucleated and each eye was separately placed in a tube containing 10 mL 4% paraformaldehyde at room temperature for overnight tissue fixation. The following day, eyes will be separately transferred to tubes containing 10 mL of 30% sucurose and stored at 21° C. until they were processed and sectioned. The slides prepared from different sections were evaluated under F-microscopy.

HEK293 cells = experiment: Example 46B: percent modification, HEK293 G-CSF ELISA (Table 75); format: cell-based, Human; details: HEK293, 250 ng mRNA with RNAiMAX, supernatant after 16 hours
BJ fibroblasts = details: 250 ng transfected daily for 5 days
mice = experiment: Example 29: mCherry LNP IV in mice, liver and spleen by IHC, western blot, FACS; format: in vivo; details: LNP NPA-003-5, 100 ug IV, 24 hrs
Description: The mCherry formulation, listed in Table 54, was characterized by particle size, zeta potential, and encapsulation.
Mice were sacrificed at 24 hrs after dosing. The liver and spleen from the mice administered with mCherry modified mRNA formulations were analyzed by immunohistochemistry (IHC), western blot, or fluorescence-activated cell sorting (FACS).

## Luciferase modified mRNA: luciferase mRNA, SEQ ID NO: 14, fully modified with 5-methylcytosine and 1-methylpseudouridine, in PBS (pH 7.4)
Balb-C mice [1]
  expression greater than an order of magnitude above background out to: 480 h
Balb-C mice [2]; I.M., 8 hrs
  Flux (average total flux, entire mouse): 2.53E+06 p/s
Balb-C mice [2]; I.M., 24 hrs
  Flux (average total flux, entire mouse): 7.84E+05 p/s
Balb-C mice [2]; I.M., 48 hrs
  Flux (average total flux, entire mouse): 6.59E+05 p/s
Balb-C mice [2]; I.M.
  Organ Flux, Inj. Site: 1.20E+06 p/s
  Organ Flux, Kidney: 1.56E+04 p/s
  Organ Flux, Liver: 1.72E+04 p/s
  Organ Flux, Lung: 1.99E+04 p/s
  Organ Flux, Spleen: 1.76E+04 p/s
Balb-C mice [2]; I.V., 8 hrs
  Flux (average total flux, entire mouse): 1.78E+06 p/s
Balb-C mice [2]; I.V., 24 hrs
  Flux (average total flux, entire mouse): 7.13E+05 p/s
Balb-C mice [2]; I.V., 48 hrs
  Flux (average total flux, entire mouse): 3.76E+05 p/s
Balb-C mice [2]; I.V.
  Organ Flux, Kidney: 1.77E+04 p/s
  Organ Flux, Liver: 1.48E+05 p/s
  Organ Flux, Lung: 1.93E+06 p/s
  Organ Flux, Spleen: 5.00E+06 p/s
Balb-C mice [2]; S.C., 8 hrs
  Flux (average total flux, entire mouse): 6.48E+06 p/s
Balb-C mice [2]; S.C., 24 hrs
  Flux (average total flux, entire mouse): 7.15E+06 p/s
Balb-C mice [2]; S.C., 48 hrs
  Flux (average total flux, entire mouse): 3.20E+06 p/s
Balb-C mice [2]; S.C.
  Organ Flux, Inj. Site: 8.29E+04 p/s
  Organ Flux, Kidney: 1.14E+04 p/s
  Organ Flux, Liver: 1.20E+04 p/s
  Organ Flux, Lung: 1.38E+04 p/s
  Organ Flux, Spleen: 1.46E+04 p/s
Balb-C mice [3]; Intramuscular, 2 hours
  Flux: 4.65E+06 p/s
Balb-C mice [3]; Intramuscular, 8 hours
  Flux: 3.64E+06 p/s
Balb-C mice [3]; Intramuscular, 24 hours
  Flux: 1.22E+07 p/s
Balb-C mice [3]; Intramuscular, 48 hours
  Flux: 1.01E+07 p/s
Balb-C mice [3]; Intramuscular, 72 hours
  Flux: 8.59E+06 p/s
Balb-C mice [3]; Intramuscular, 96 hours
  Flux: 2.70E+06 p/s
Balb-C mice [3]; Intramuscular, 120 hours
  Flux: 1.60E+06 p/s
Balb-C mice [3]; Intramuscular, 144 hours
  Flux: 2.19E+06 p/s
Balb-C mice [3]; Subcutaneous, 2 hours
  Flux: 4.54E+06 p/s
Balb-C mice [3]; Subcutaneous, 8 hours
  Flux: 8.75E+05 p/s
Balb-C mice [3]; Subcutaneous, 24 hours
  Flux: 5.49E+06 p/s
Balb-C mice [3]; Subcutaneous, 48 hours
  Flux: 1.77E+06 p/s
Balb-C mice [3]; Subcutaneous, 72 hours
  Flux: 8.00E+05 p/s
Balb-C mice [3]; Subcutaneous, 96 hours
  Flux: 5.33E+05 p/s
Balb-C mice [3]; Subcutaneous, 120 hours
  Flux: 4.09E+05 p/s
Balb-C mice [4]
  protein expression with vs without electroporation: increase protein expression

B1: mCherry: mCherry mRNA (SEQ ID NO: 5; SEQ ID NO: 12 in Example 29), Cap1, fully modified with 5-methylcytosine and pseudouridine (nucleic acid)
chain: GGGAAAUAAGAGAGAAAAGAAGAGUAAGAAGAAAUAUAAGAGCCACCAUGGUAUCCAAGGGGGAGGAGGACAACAUGGCGAUCAUCAAGGAGUUCAUGCGAUUCAAGGUGCACAUGGAAGGUUCGGUCAACGGACACGAAUUUGAAAUCGAAGGAGAGGGUGAAGGAAGGCCCUAUGAAGGGACACAGACCGCGAAACUCAAGGUCACGAAAGGGGGACCACUUCCUUUCGCCUGGGACAUUCUUUCGCCCCAGUUUAUGUACGGGUCCAAAGCAUAUGUGAAGCAUCCCGCCGAUAUUCCUGACUAUCUGAAACUCAGCUUUCCCGAGGGAUUCAAGUGGGAGCGGGUCAUGAACUUUGAGGACGGGGGUGUAGUCACCGUAACCCAAGACUCAAGCCUCCAAGACGGCGAGUUCAUCUACAAGGUCAAACUGCGGGGGACUAACUUUCCGUCGGAUGGGCCGGUGAUGCAGAAGAAAACGAUGGGAUGGGAAGCGUCAUCGGAGAGGAUGUACCCAGAAGAUGGUGCAUUGAAGGGGGAGAUCAAGCAGAGACUGAAGUUGAAAGAUGGGGGACAUUAUGAUGCCGAGGUGAAAACGACAUACAAAGCGAAAAAGCCGGUGCAGCUUCCCGGAGCGUAUAAUGUGAAUAUCAAGUUGGAUAUUACUUCACACAAUGAGGACUACACAAUUGUCGAACAGUACGAACGCGCUGAGGGUAGACACUCGACGGGAGGCAUGGACGAGUUGUACAAAUGAUAAGCUGCCUUCUGCGGGGCUUGCCUUCUGGCCAUGCCCUUCUUCUCUCCCUUGCACCUGUACCUCUUGGUCUUUGAAUAAAGCCUGAGUAGGAAG
modifications: Cap1; 5-methylcytosine and pseudouridine
[5]; PBMC Donor 1, 500 ng mRNA, 6 hours
  G-CSF: 0 pg/mL
[5]; PBMC Donor 1, 500 ng mRNA, 18 hours
  G-CSF: 0 pg/mL
[5]; PBMC Donor 2, 500 ng mRNA, 6 hours
  G-CSF: 0 pg/mL
[5]; PBMC Donor 2, 500 ng mRNA, 18 hours
  G-CSF: 7 pg/mL
[5]; PBMC Donor 3, 500 ng mRNA, 6 hours
  G-CSF: 0 pg/mL
[5]; PBMC Donor 3, 500 ng mRNA, 18 hours
  G-CSF: 0 pg/mL
rats
  mCherry expression in eye sections: Positive expression was seen
HEK293 cells
  G-CSF Expression: 0 ng/mL
BJ fibroblasts; 6 hours
  IFN-beta: 0 pg/mL
  IL-6: 3278 pg/mL
BJ fibroblasts; Day 1
  IFN-beta: 238 pg/mL
  IL-6: 3893 pg/mL
BJ fibroblasts; Day 2
  IFN-beta: 113 pg/mL
  IL-6: 1833 pg/mL
BJ fibroblasts; Day 3
  IFN-beta: 413 pg/mL
  IL-6: 25539 pg/mL
BJ fibroblasts; Day 4
  IFN-beta: 413 pg/mL
  IL-6: 29233 pg/mL
BJ fibroblasts; Day 5
  IFN-beta: 213 pg/mL
  IL-6: 20178 pg/mL
mice
  mCherry expression in liver (histology): uniform mCherry expression throughout the section
  mCherry expression in spleen leukocyte populations (FACS): negative for mCherry expression
